Results on ten compounds are retold here after PubChem BioAssay AID226 (DTP/NCI, 2004).

The test relates to B6C3F1 mice, intracerebral ependymoblastoma, median survival T/C. The test is described as follows: NCI In Vivo Anticancer Drug Screen. Data for tumor model Ependymoblastoma (intracerebral) in B6C3F1 mice. Particulars: endpoint: median survival time, higher = longer survival. How it is done:
The antitumor activity of compounds was measured in mice bearing transplantable tumors. Survival or tumor size were measured and the results are expressed as the measurement made in the treated group (T) divided by the measurement made in the vehicle treated control group (C). The tumor model used in this assay is Ependymoblastoma (intracerebral) in B6C3F1 mice

Where [1] appears, read: dose: 8.0 mg/kg/injection, schedule: Q01DX005 (ip), vehicle: saline with Tween-80.
Where [2] appears, read: dose: 16.0 mg/kg/injection, schedule: Q01DX005 (ip), vehicle: saline with Tween-80.
[3] abbreviates: dose: 32.0 mg/kg/injection, schedule: Q01DX005 (ip), vehicle: saline with Tween-80.
Setting [4] is: dose: 64.0 mg/kg/injection, schedule: Q01DX005 (ip), vehicle: saline with Tween-80.

Molecules are shown by their SMILES. Values joined by “and” are separate entries in the source; they are usually repeats but may differ in a detail not shown here. Equal entries are not always repeated. Toxic doses and inconclusive results are not listed.

Turning to `CCC(=O)NC1=C(N2CC2C)C(=O)C(NC(=O)CC)=C(N2CC2C)C1=O` (centres undefined), the T/C is, setting by setting: (dose: 0.78 mg/kg/injection, schedule: Q01DX009 (ip), vehicle: Klucel (hydroxypropylcellulose) (HPC)) 105 % of control; (dose: 1.56 mg/kg/injection, schedule: Q01DX009 (ip), vehicle: Klucel (hydroxypropylcellulose) (HPC)) 110 % of control; (dose: 3.12 mg/kg/injection, schedule: Q01DX009 (ip), vehicle: Klucel (hydroxypropylcellulose) (HPC)) 106 % of control; (dose: 6.25 mg/kg/injection, schedule: Q01DX009 (ip), vehicle: Klucel (hydroxypropylcellulose) (HPC)) 105 % of control.
Take `OCC1OC(n2cnc3c(SCc4ccccc4)ncnc32)C(O)C1O` (centres undefined): the T/C reads like this: (dose: 37.5 mg/kg/injection, schedule: Q01DX005 (ip), vehicle: saline with Tween-80) 97 % of control; (dose: 75.0 mg/kg/injection, schedule: Q01DX005 (ip), vehicle: saline with Tween-80) 106 % of control; (dose: 150.0 mg/kg/injection, schedule: Q01DX005 (ip), vehicle: saline with Tween-80) 120 % of control.
On to `CCN(CC)c1ccc2cc3ccc(=[N+](CC)CC)cc-3oc2c1`, for which the T/C was 110 % of control (dose: 2.0 mg/kg/injection, schedule: Q01DX005 (ip), vehicle: saline); 90 % of control (dose: 4.0 mg/kg/injection, schedule: Q01DX005 (ip), vehicle: saline); 93 % of control (dose: 8.0 mg/kg/injection, schedule: Q01DX005 (ip), vehicle: saline).
As for `CC(C)NCC(O)COc1cccc2ccccc12` (centres undefined), the T/C reads like this: (dose: 4.0 mg/kg/injection, schedule: Q01DX005 (ip), vehicle: saline with Tween-80) 107 % of control; (dose: 4.0 mg/kg/injection, schedule: Q01DX009 (ip), vehicle: saline with Tween-80) 107 % of control; under setting [1], 101 % of control; (dose: 8.0 mg/kg/injection, schedule: Q01DX009 (ip), vehicle: saline with Tween-80) 101 % of control; under setting [2], 112 % of control; (dose: 16.0 mg/kg/injection, schedule: Q01DX009 (ip), vehicle: saline with Tween-80) 115 % of control. The T/C is 107 % of control under setting [3]; 105 % of control (dose: 32.0 mg/kg/injection, schedule: Q01DX009 (ip), vehicle: saline with Tween-80); 107 % of control under setting [4]; 107 % of control (dose: 64.0 mg/kg/injection, schedule: Q01DX009 (ip), vehicle: saline with Tween-80).
Take `NC(=O)N(CCCl)N=O`: the T/C was 121 % of control (dose: 1.0 mg/kg/injection, schedule: Q01DX001 (ip), vehicle: saline + alcohol) and 184 % of control (dose: 4.0 mg/kg/injection, schedule: Q01DX001 (ip), vehicle: saline + alcohol).
For `Nc1ncnc2c1ncn2C1OC(COP(=O)(O)O)C(O)C1O` (centres undefined), the T/C runs as follows: (dose: 25.0 mg/kg/injection, schedule: Q01DX005 (ip), vehicle: saline) 100 % of control; (dose: 50.0 mg/kg/injection, schedule: Q01DX005 (ip), vehicle: saline) 106 % of control and 107 % of control; (dose: 100.0 mg/kg/injection, schedule: Q01DX005 (ip), vehicle: saline) 105 % of control and 112 % of control; (dose: 200.0 mg/kg/injection, schedule: Q01DX005 (ip), vehicle: saline) 107 % of control and 109 % of control; (dose: 400.0 mg/kg/injection, schedule: Q01DX005 (ip), vehicle: saline) 106 % of control and 112 % of control; (dose: 800.0 mg/kg/injection, schedule: Q01DX005 (ip), vehicle: saline) 117 % of control.
For the compound `CC(C)(C)N1CC1CNC(=O)C(=O)NCC1CN1C(C)(C)C` (centres undefined), the T/C by setting is: (dose: 1.5 mg/kg/injection, schedule: Q01DX005 (ip), vehicle: saline with Tween-80) 96 % of control; (dose: 3.0 mg/kg/injection, schedule: Q01DX005 (ip), vehicle: saline with Tween-80) 102 % of control and 112 % of control; (dose: 3.12 mg/kg/injection, schedule: Q01DX005 (ip), vehicle: saline with Tween-80) 112 % of control; (dose: 6.0 mg/kg/injection, schedule: Q01DX005 (ip), vehicle: saline with Tween-80) 102 % of control and 114 % of control; (dose: 6.25 mg/kg/injection, schedule: Q01DX005 (ip), vehicle: saline with Tween-80) 116 % of control; (dose: 12.0 mg/kg/injection, schedule: Q01DX005 (ip), vehicle: saline with Tween-80) 115 % of control and 119 % of control.
Consider `CCCCCCCC(=O)O[C@H]1[C@H]2[C@@H](CC1(C)C)C(=O)[C@]13O[C@H]1C(=O)[C@]1(CO1)[C@]23C`, for which the T/C (dose: 0.62 mg/kg/injection, schedule: Q01DX005 (ip), vehicle: Klucel (hydroxypropylcellulose) (HPC)) is 107 % of control; the T/C (dose: 1.25 mg/kg/injection, schedule: Q01DX005 (ip), vehicle: Klucel (hydroxypropylcellulose) (HPC)) was 106 % of control; the T/C (dose: 2.5 mg/kg/injection, schedule: Q01DX005 (ip), vehicle: Klucel (hydroxypropylcellulose) (HPC)) was 111 % of control; the T/C (dose: 5.0 mg/kg/injection, schedule: Q01DX005 (ip), vehicle: Klucel (hydroxypropylcellulose) (HPC)) is 110 % of control; the T/C (dose: 10.0 mg/kg/injection, schedule: Q01DX005 (ip), vehicle: Klucel (hydroxypropylcellulose) (HPC)) was 102 % of control; the T/C (dose: 20.0 mg/kg/injection, schedule: Q01DX005 (ip), vehicle: Klucel (hydroxypropylcellulose) (HPC)) was 101 % of control.
Turning to `CCCCCC(=O)O[C@]1(C(C)=O)CC[C@H]2[C@@H]3CCC4=CC(=O)CC[C@]4(C)[C@H]3CC[C@@]21C`, the T/C is 105 % of control (dose: 8.0 mg/kg/injection, schedule: Q01DX005 (ip), vehicle: Klucel (hydroxypropylcellulose) (HPC)); 96 % of control (dose: 8.0 mg/kg/injection, schedule: Q01DX005 (ip), vehicle: saline + alcohol); 95 % of control and 105 % of control under setting [1]; 106 % of control (dose: 16.0 mg/kg/injection, schedule: Q01DX005 (ip), vehicle: Klucel (hydroxypropylcellulose) (HPC)); 106 % of control (dose: 16.0 mg/kg/injection, schedule: Q01DX005 (ip), vehicle: saline + alcohol); 115 % of control and 89 % of control under setting [2]. In addition, the T/C reads like this: (dose: 32.0 mg/kg/injection, schedule: Q01DX005 (ip), vehicle: Klucel (hydroxypropylcellulose) (HPC)) 87 % of control; (dose: 32.0 mg/kg/injection, schedule: Q01DX005 (ip), vehicle: saline + alcohol) 102 % of control; under setting [3], 98 % of control and 117 % of control; (dose: 64.0 mg/kg/injection, schedule: Q01DX005 (ip), vehicle: Klucel (hydroxypropylcellulose) (HPC)) 101 % of control; (dose: 64.0 mg/kg/injection, schedule: Q01DX005 (ip), vehicle: saline + alcohol) 104 % of control; under setting [4], 99 % of control and 105 % of control. Further, the T/C was 86 % of control (dose: 128.0 mg/kg/injection, schedule: Q01DX005 (ip), vehicle: Klucel (hydroxypropylcellulose) (HPC)); 102 % of control (dose: 128.0 mg/kg/injection, schedule: Q01DX005 (ip), vehicle: saline + alcohol); 104 % of control and 107 % of control (dose: 128.0 mg/kg/injection, schedule: Q01DX005 (ip), vehicle: saline with Tween-80); 95 % of control (dose: 256.0 mg/kg/injection, schedule: Q01DX005 (ip), vehicle: Klucel (hydroxypropylcellulose) (HPC)); 102 % of control (dose: 256.0 mg/kg/injection, schedule: Q01DX005 (ip), vehicle: saline + alcohol); 98 % of control and 107 % of control (dose: 256.0 mg/kg/injection, schedule: Q01DX005 (ip), vehicle: saline with Tween-80). Further, the T/C (dose: 512.0 mg/kg/injection, schedule: Q01DX005 (ip), vehicle: Klucel (hydroxypropylcellulose) (HPC)) was 95 % of control; the T/C (dose: 512.0 mg/kg/injection, schedule: Q01DX005 (ip), vehicle: saline + alcohol) is 113 % of control; the T/C (dose: 512.0 mg/kg/injection, schedule: Q01DX005 (ip), vehicle: saline with Tween-80) was 95 % of control and 105 % of control.
Regarding `O=P1(NCCCl)OCCC(OO)N1CCCl` (centres undefined), the T/C is, setting by setting: (dose: 40.0 mg/kg/injection, schedule: Q01DX001 (ip), vehicle: Klucel (hydroxypropylcellulose) (HPC)) 106 % of control and 119 % of control; (dose: 80.0 mg/kg/injection, schedule: Q01DX001 (ip), vehicle: Klucel (hydroxypropylcellulose) (HPC)) 115 % of control; (dose: 240.0 mg/kg/injection, schedule: Q01DX001 (ip), vehicle: Klucel (hydroxypropylcellulose) (HPC)) 150 % of control.
